# Legend:
# [1] = test system: BxPC3 pancreatic cancer cells; assay: Cell toxicity study, Presto Blue % viability; assay type: cell-based; details: 14 mM (10% of typical imaging concentration), 16 hours
# Procedure: Cell toxicity studies. BxPC3 pancreatic cancer cells were maintained in RPMI 1640 supplemented with 10% FBS at 37° C. with 5% CO2. To measure effects of C′ dots or βME on cells, cells at ˜70% confluence were washed with PBS, exposed to trypsin, resuspended, and dispensed into 96-well tissue culture plates (20,000 cells per well). Cells were allowed to settle overnight, forming a monolayer ˜70-80% confluent. The medium was removed from each well, and replaced with medium supplemented with varying amounts of either 60% srC′ dots or βME, or with DMSO (carrier agent) alone as a control, as well as 1× Pen-Strep antibiotic. Cells were then incubated for 6 days (srC′ dots) or 16 hours ((ME). Following incubation, medium was removed, cells washed with fresh medium and then incubated for one hour with fresh medium and Presto Blue per the manufacturer's recommendations. The absorbance of the Presto Blue was determined at 570 nm (background 600 nm) using a Tecan Safire microplate reader. Absorption was compared to that of a blank (medium plus Presto Blue in unused wells) to determine % viability of remaining cells, with the DMSO control lane defined as 100% viability, and the empty wells defined as 0% viability. All experiments were performed in triplicate.
# [2] = in ethanol; cited from earlier work
# [3] = Singlet oxygen quantum yield determination with DPBF sensor, relative to methylene blue; details: FIG. 15b inset, 635 nm exposure
# Procedure: Determination of singlet oxygen quantum yields, ΦΔ. Measurements were carried out in ethanol with DPBF as a singlet oxygen detector molecule. The DPBF band at 410 nm and λmax of each dye were absorption matched across a particle series. For measurements of effective ΦΔ samples were concentration matched. The spectra were exposed and measured in a 100 μL quartz cuvette (Starna). Samples were evenly exposed to a 635 nm solid-state laser at 3 mW/cm^2 and 1 cm spot size. Measurements were started immediately after DPBF addition. The decrease of the 410 nm DPBF band was measured at various exposure times and corrected against a baseline. ΦΔ for each sample was calculated by comparing to MB (ΦΔ=0.520 in ethanol) as a standard (see example calculations).
# Example calculation to determine singlet oxygen quantum yield, ΦΔ. ΦΔ(sample) is determined relative to a standard with known ΦΔ(standard) using equation (5):
# [formula] Here, we used methylene blue (MB) as a standard with known ΦΔ(MB)=0.520. With the slopes, m, from the linear fits through the values of the 410 nm DPBF absorption band at different exposure times, ΦΔ(sample) can be calculated. With the values from FIG. 15b inset m(ATTO647N 7.5% iC′ dots)=0.00314 s^−1 and m(MB)=0.02506 s^−1, Φ^Δ (ATT0647N 7.5% iC′ dots)=0.520([…])=0.065.
SMILES,%-cell viability [1],"singlet oxygen quantum yield, ΦΔ (known value of standard) [2]",slope m of linear fit of ln relative DPBF absorption at 410 nm vs exposure time [3] [s^−1]
"OCCS [βME, β-mercaptoethanol]",substantial cell death,–,–
"CN(C)c1ccc2nc3ccc(=[N+](C)C)cc-3sc2c1 [MB, methylene blue]",–,0.520,0.02506

# Source: patent publication US12397067B2, “Sulfur- or heavy atom-containing nanoparticles, methods of making same, and uses thereof” (Cornell University, priority 2017, dated 2025)
